Experimental data taken from patent publication EP1043331A1, “BONE-RESORPTIVE CYTOKINE INHIBITOR CONTAINING DIENOGEST AS THE ACTIVE INGREDIENT” (MOCHIDA PHARMACEUTICAL CO., LTD., priority 1997, dated 1999).
Marks after values point to notes of the source that are not given here.

Key:
Format in all cases: cell-based, mouse
[1] = tested on: IL-1β; assay: IL-1β release from murine osteoblast (culture supernatant cytokine assay); settings: 24 hours culture
Description: (§1) Under anesthesia with pentobarbital sodium (25 mg/kg, intraperitoneal administration), postcava was cut to bleed and kill the animal to death. Then, bilateral femoral bones were resected. This bone was cut with a pair of bone scissors, to remove the bone marrow with a micro-loop. The inner face of the bone was rubbed off with a sharp blade. The resulting matter was agitated in a 10 % collagenase solution (Nitta gelatin) at 37 °C for 20 minutes, and to the resulting mixture was added a culture medium (an MEM culture medium supplemented with 10 % charcoal-treated bovine fetal serum; manufactured by Nissui Pharmaceutical, Co. Ltd.) prior to centrifugation (300×g, 5 minutes and 20 °C). The resulting cells were dispersed in a fresh culture medium and then inoculated on a plastic culture dish (diameter of 35 mm, Primaria (Falcon)). […] Osteoblast was identified by using alkali phosphatase staining as an osteoblast marker. For recovering osteoblast from an animal after ovariectomy, ovariectomy was carried out at age 11 weeks, and the animal was fed for the following 4 weeks, prior to the same treatment.
(§2) Dienogest as a test substance was dissolved and diluted in dimethylsulfoxide (DMSO, manufactured by Wako Pure Chemical Industries, Ltd.) for use. As a control substance, furthermore, MPA and danazol were used after they were dissolved and diluted in DMSO. DMSO was used as a solvent control.
(§3) The final concentrations of the drug were 10^-11, 10^-10 and 10^-9 M. For experiments, furthermore, three dishes per each group were used.
(§4) Using SMRART ™ (Pharmacia Biotech, Uppsala, Sweden), the supernatant was concentrated by about 10 fold, after the termination of culturing. The level of cytokine in the sample was assayed by using assay kits of murine IL-1β, IL-6 and TNF-α (Cytoscreen™, BioSource International, Camarillo, Calif. CA, USA) and europium-labeled streptoavidin (Pharmacia Biotech).

[2] = tested on: cAMP; assay: cAMP content in murine osteoblast (time-resolved fluorometry); settings: Fig.1
Description: According to the method by Johansen, et al. (Journal Bone and Mineral Research, Vol.7, pp.501-509, 1992), osteoblast was collected from the femoral bones of a female SLC : ICR mouse of age 15 weeks. Under anesthesia with pentobarbital sodium (25 mg/kg, intraperitoneal administration), postcava was cut to bleed and kill the animal to death. Then, bilateral femoral bones were resected. This bone was cut with a pair of bone scissors, to remove the bone marrow with a micro-loop. The inner face of the bone was rubbed off with a sharp blade. The resulting matter was agitated in a 10 % collagenase solution (Nitta gelatin) at 37 °C for 20 minutes, and to the resulting mixture was added a culture medium (an MEM culture medium supplemented with 10 % charcoal-treated bovine fetal serum; manufactured by Nissui Pharmaceutical, Co. Ltd.) prior to centrifugation (300×g, 5 minutes and 20 °C). The resulting cells were dispersed in a fresh culture medium and then inoculated on a plastic culture dish (diameter of 35 mm, Primaria (Falcon)). […] Osteoblast was identified by using alkali phosphatase staining as an osteoblast marker. For recovering osteoblast from an animal after ovariectomy, ovariectomy was carried out at age 11 weeks, and the animal was fed for the following 4 weeks, prior to the same treatment. 1×10^4 cells/ml osteoblast suspension (100 µl), a culture medium (890 µl) and a drug solution (10 µl) were added into each well of a plastic 24-well culture plate (Falcon), for culturing at 37 °C in 5 % CO2/95 % air for 24 hours, and then, the resulting culture was centrifuged (300 ×g, 5 minutes, 20°C) to recover the supernatant, which was defined as a cytokine assay sample. […] For experiments, furthermore, three dishes per each group were used. […] After rinsing with a DELFIA rinse solution, an enhancer reagent (100 µl) was added, for agitation at room temperature for 5 minutes, to determine the fluorescence intensity with a time-resolved fluorometer. Based on a preliminarily prepared standard curve, cAMP content was calculated.

[3] = tested on: murine osteoclast; assay: Pit formation by murine osteoclast on ivory disks; settings: 3 days culture on ivory disk, control 0.16
Description: After an ICR mouse of age 13 days was bled to death under anesthesia (pentobarbital sodium), bilateral femoral bones were resected. In an α-MEM culture medium (Gibco), the femoral bones were cut into pieces with a pair of bone scissors for 5 minutes, and the resulting pieces were agitated with a vortex mixer for 30 seconds. The cell suspension was centrifuged (1000 g, 2 min., 15 °C), and the resulting supernatant was discarded. The precipitate was suspended in an α-MEM culture medium, to adjust the suspension to a cell number of 1×10^7 cells/ml.
A purchased ivory piece was processed into a disk of a diameter of 5.5 mm and a thickness of 200 µm, by using a precision low-speed cutter (manufactured by BUEHLER) and a cut blade. The disk was then treated under ultrasonication in distilled water, and was immersed in an α-MEM culture medium (culture medium) supplemented with 10 % bovine fetal serum (Dai-Nippon Pharmaceuticals, Co.) treated with charcoal. The resulting each disk was placed in each well of a 96-well culture plate (Falcon), to which was added 100 µl of the drug solution. The osteoclast suspension was inoculated at 1×10^6 cells(100µl) thereon, for culturing at 37 °C in 5 % CO2/95 % air for 3 days. All the drugs were adjusted to final concentrations of 10^-11, 10^-10 and 10^-9 M. Additionally, five samples per each concentration were experimented.
Absorbency was determined by calculating a phargocytized area on the bone. More specifically, the ivory piece after the treatment with the drugs was wiped with gauze, rinsed with an ultrasonication machine for 30 minutes, and stained with an acid hematoxylin solution (Sigma Chemical Co., Ltd.) for 5 minutes. The piece was then rinsed in distilled water, and the phargocytized absorption area was measured with an image analyzer (Luzex, Nireco) at 100 magnification. Nine different parts were counted per each ivory piece, to calculate the average.

[4] = tested on: IL-6; assay: IL-6 release from murine osteoblast (culture supernatant cytokine assay); settings: 24 hours culture
Description: as §1, §2, §3, §4

[5] = osteoblast of non-treated mouse, 10^-9 M, control 13.9
[6] = osteoblast of non-treated mouse, 10^-10 M, control 13.9
[7] = osteoblast of non-treated mouse, 10^-11 M, control 13.9
[8] = osteoblast of ovariectomized mouse, 10^-9 M, control 26.3
[9] = osteoblast of ovariectomized mouse, 10^-10 M, control 26.3
[10] = osteoblast of ovariectomized mouse, 10^-11 M, control 26.3
[11] = doses of 10^-11, 10^-10 and 10^-9 M
[12] = osteoblast of non-treated mouse, 10^-9 M, control 39.9
[13] = osteoblast of non-treated mouse, 10^-10 M, control 39.9
[14] = osteoblast of non-treated mouse, 10^-11 M, control 39.9
[15] = osteoblast of ovariectomized mouse, 10^-9 M, control 109.0
[16] = osteoblast of ovariectomized mouse, 10^-10 M, control 109.0
[17] = osteoblast of ovariectomized mouse, 10^-11 M, control 109.0

In the case of C#C[C@]1(O)CC[C@H]2[C@@H]3CCC4=Cc5oncc5C[C@]4(C)[C@H]3CC[C@@]21C [Danazol, danazol], the IL-1β [1, 5] is reported as 15.4* pg/ml, the IL-1β [1, 6] is reported as 13.8 pg/mL and the IL-1β [1, 7] is reported as 13.6 pg/mL. The IL-1β [1, 8] was 28.1** pg/ml, the IL-1β [1, 9] was 26.0 pg/mL and the IL-1β [1, 10] was 25.2 pg/mL. The “cAMP content in murine osteoblast” value [2, 11] was “did not affect”, the “pit formation due to murine osteoclast (phargocytized absorption area)” value (shortened to “pit formation due to murine osteoclast”) ([3]; 10^-9 M) was 0.16 and the “pit formation due to murine osteoclast” value ([3]; 10^-10 M) was 0.15. For the same molecule, the “pit formation due to murine osteoclast” value ([3]; 10^-11 M) was 0.16, the IL-6 [4, 12] was 42.0** pg/ml and the IL-6 [4, 13] was 37.7 pg/mL. For the same molecule, the IL-6 [4, 14] was 38.9 pg/mL, the IL-6 [4, 15] was 124.0** pg/ml and the IL-6 [4, 16] was 109.4 pg/mL. It also gave an IL-6 [4, 17] of 111.3 pg/mL.
For C[C@]12CCC3=C4CCC(=O)C=C4CC[C@H]3[C@@H]1CC[C@@]2(O)CC#N [Dienogest, 17 α-cyanomethyl-17β-hydroxy-estra-4,9(10)-dien-3-one], the IL-1β [1, 5] was 12.0** pg/ml, the IL-1β [1, 6] was 13.7 pg/mL and the IL-1β [1, 7] was 14.4 pg/mL. For the same molecule, the IL-1β [1, 8] was 23.1** pg/ml, the IL-1β [1, 9] was 23.8* pg/ml and the IL-1β [1, 10] was 26.1 pg/mL. The “cAMP content in murine osteoblast” value ([2]; at a concentration of 10^-9 M or more) was “significantly increased”, the “pit formation due to murine osteoclast” value ([3]; 10^-9 M) was 0.10** and the “pit formation due to murine osteoclast” value ([3]; 10^-10 M) was 0.15. The “pit formation due to murine osteoclast” value ([3]; 10^-11 M) was 0.15, the IL-6 [4, 12] was 32.3** pg/ml and the IL-6 [4, 13] was 35.5 pg/mL. The IL-6 [4, 14] was 39.3 pg/mL, the IL-6 [4, 15] was 40.1** pg/ml and the IL-6 [4, 16] was 47.7** pg/ml. It also gave an IL-6 [4, 17] of 94.2 pg/mL.
For CC(=O)O[C@]1(C(C)=O)CC[C@H]2[C@@H]3C[C@H](C)C4=CC(=O)CC[C@]4(C)[C@H]3CC[C@@]21C [MPA, medroxyprogesterone acetate], the IL-1β [1, 5] was 16.9* pg/ml, the IL-1β [1, 6] was 14.4 pg/mL and the IL-1β [1, 7] was 13.3 pg/mL. For the same molecule, the IL-1β [1, 8] was 30.2** pg/ml, the IL-1β [1, 9] was 25.9 pg/mL and the IL-1β [1, 10] was 26.3 pg/mL. For the same molecule, the “cAMP content in murine osteoblast” value [2, 11] was “did not affect”, the “pit formation due to murine osteoclast” value ([3]; 10^-9 M) was 0.16 and the “pit formation due to murine osteoclast” value ([3]; 10^-10 M) was 0.16. The “pit formation due to murine osteoclast” value ([3]; 10^-11 M) was 0.16, the IL-6 [4, 12] was 45.1** pg/ml and the IL-6 [4, 13] was 37.6 pg/mL. For the same molecule, the IL-6 [4, 14] was 38.7 pg/mL, the IL-6 [4, 15] was 122.5** pg/ml and the IL-6 [4, 16] was 109.3 pg/mL. For the same molecule, the IL-6 [4, 17] was 111.4 pg/mL.
